US11186577B2, “Vasopressin receptor antagonists and products and methods related thereto” (BlackThorn Therapeutics, Inc., priority 2017, dated 2021)

How the values were obtained:
MDR1 (P-gp) = assay: in vitro; settings: dog, MDCK-MDR1
[1] = target: human Arginine Vasopressin Receptor 1a (AVPR1a) (Homo sapiens (Human), UniProt P37288); assay: Vasopressin V1A receptor antagonist assay (AVP-evoked calcium, FLIPR, CHO-AVPR1a cells); format: cell-based; settings: read-out: V1a IC50
Procedure, shortened: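 CHO cells expressing human AVPR1a, Calcium-6 dye loaded 60-90 min, preincubated with compound 15 min at 37° C., then challenged with AVP at its daily-determined EC80. FLIPR fluorescence; 10-point 1:3 series from 3 μM, duplicates.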

MDR1-MDCK cells = assay: MDR1-MDCK effective efflux assay (Transwell, 10 μM, 1 hour), MDR1-MDCK cells; format: in vitro ADME; settings: MDCK-MDR1
Description: (§1) The MDR1-MDCK effective efflux assay was performed as described in the BioFocus Standard Operating Procedure, ADME-SOP-56. Both wild-type (WT) and MDR1-MDCK cells (Solvo Biotechnology) were seeded onto 24-well Transwell plates at 2.35×10^5 cells per well and used in confluent monolayers after a 3 day culture at 37° C. under 5% CO2. For both cell types, test and control compounds (propranolol, vinblastine) were added (10 μM, 0.1% DMSO final, n=2) to donor compartments of the Transwell plate assembly in assay buffer (Hanks balanced salt solution supplemented with 25 mM HEPES, adjusted to pH 7.4) for both apical to basolateral (A>B) and basolateral to apical (B>A) measurements. Incubations were performed at 37° C., with samples removed from both donor and acceptor chambers at T=0 and 1 hour and compound analysed by mass spectrometry (LC-MS/MS) including an analytical internal standard.
(§2) Where V is the volume of each Transwell compartment (apical 125 basolateral 600 and concentrations are the relative MS responses for compound (normalized to internal standard) in the donor chamber before incubation and acceptor chamber at the end of the incubation. Area=area of cells exposed for drug transfer (0.33 cm2).
(§3) Efflux ratios (Papp B>A/Papp A>B) were calculated for each compound from the mean Papp values in each direction for both wild-type and MDR1-MDCK cells.
(§4) In order to confirm the involvement of MDR1 in any efflux seen, an “effective efflux ratio” (EER) was calculated by comparing compound efflux ratios (ER) in the two cell types, i.e. EER=ER(MDR1−MDCK)/ER(wild-type MDCK)
(§5) This ratio illustrates the effect of the over-expressed MDR1 normalised for the background movement of compound through the wild-type cells.
(§6) Lucifer Yellow (LY) was added to the apical buffer in all wells to assess viability of the cell layer. Compound recovery from the wells was determined from MS responses (normalized to internal standard) in donor and acceptor chambers at the end of incubation compared to response in the donor chamber pre-incubation.

MDR1 (P-glycoprotein) = assay: as above; format: in vitro ADME; settings: dog, MDCK-MDR1, pH 7.4, Papp AB MDR1
Description: as §1, §2, §3, §4, §5, §6

[2] = target: human Oxytocin Receptor (hOTR) (Homo sapiens (Human), UniProt P30559); assay: Oxytocin receptor antagonist assay (oxytocin-evoked calcium, FLIPR, CHEM-1-hOTR cells); format: cell-based; settings: read-out: OT IC50
Sequence of human Oxytocin Receptor (hOTR) (P30559 whole entry): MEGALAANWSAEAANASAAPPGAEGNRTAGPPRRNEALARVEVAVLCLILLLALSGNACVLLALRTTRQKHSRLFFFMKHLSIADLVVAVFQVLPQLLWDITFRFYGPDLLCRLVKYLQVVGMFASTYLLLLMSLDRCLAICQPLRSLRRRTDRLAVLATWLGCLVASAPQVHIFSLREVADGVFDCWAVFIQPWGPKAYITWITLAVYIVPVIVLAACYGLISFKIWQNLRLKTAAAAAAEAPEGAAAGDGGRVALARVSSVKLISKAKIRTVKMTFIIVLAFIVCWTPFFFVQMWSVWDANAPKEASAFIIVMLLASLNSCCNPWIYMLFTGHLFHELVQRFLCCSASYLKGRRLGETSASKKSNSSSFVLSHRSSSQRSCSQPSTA
Procedure, shortened: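 Antagonist mode in CHEM-1-hOTR cells loaded with Calcium-6 dye; compounds (10-point, 1:3 series) preincubated 15 min at 37 °C, then oxytocin added at daily-determined EC80 in HBSS/20 mM HEPES with 0.1% BSA. Fluorescence (ex 470-495, em 515-575 nm) followed 3 min on FLIPR^TETRA; concentration-dependent reduction of oxytocin response measured.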

[3] = MDR1-MDCK effective efflux assay (Transwell, 10 μM, 1 hour), wild-type MDCK cells; format: in vitro ADME; settings: dog, MDCK, pH 7.4, Papp AB WT
Description: as §1, §2, §3, §4, §5, §6

[4] = tested on: wild-type (WT) MDCK cells; assay: as above; format: in vitro ADME; settings: MDCK
Description: as §1, §2, §3, §4, §5, §6

Sequence of human Arginine Vasopressin Receptor 1a (AVPR1a) (P37288 whole entry): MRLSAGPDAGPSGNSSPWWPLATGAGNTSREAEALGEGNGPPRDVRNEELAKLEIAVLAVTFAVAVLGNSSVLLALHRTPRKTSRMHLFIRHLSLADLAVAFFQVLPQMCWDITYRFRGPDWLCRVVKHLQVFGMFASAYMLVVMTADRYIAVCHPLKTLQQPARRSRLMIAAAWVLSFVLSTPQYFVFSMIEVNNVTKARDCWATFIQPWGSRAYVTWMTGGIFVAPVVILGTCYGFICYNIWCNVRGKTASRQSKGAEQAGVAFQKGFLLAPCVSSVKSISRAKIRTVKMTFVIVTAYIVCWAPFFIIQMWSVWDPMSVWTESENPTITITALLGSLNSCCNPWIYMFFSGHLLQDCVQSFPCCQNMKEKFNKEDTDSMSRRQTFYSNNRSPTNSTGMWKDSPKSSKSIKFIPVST

SMILES	Papp A→B at 2 h (MDR1 (P-gp))	IC50 [1]	MDR1 EER (MDR1-MDCK cells)	MDR1 ER (MDR1-MDCK cells)	Papp A→B at 1 h, 10 μM (MDR1 (P-glycoprotein))	IC50 [2]	Papp A→B at 1 h, 10 μM [3]	WT ER [4]
Cc1nc(N2CC3(CC(c4nnc5n4-c4ccc(Cl)cc4CN(C)C5)C3)C2)ccc1F [compound 242]	> 20 ×10⁻⁶ cm/s	< 100 nM	–	–	–	–	–	–
CCC(=O)N1Cc2cc(Cl)ccc2-n2c(nnc2C2CC3(C2)CN(c2cnccn2)C3)C1 [compound 110]	–	< 100 nM	+	+	< 7 ×10⁻⁶ cm/s	> 1000 nM	10 to 20 ×10⁻⁶ cm/s	+
CC1c2nnc(C3CC4(C3)CN(c3ccc(F)cn3)C4)n2-c2ccc(Cl)cc2CN1C(=O)OC1CC(F)(F)C1 (stereo not shown) [compound 193, 3,3-difluorocyclobutyl 8-chloro-1-(2-(5-fluoropyridin-2-yl)-2-azaspiro[3.3]heptan-6-yl)-4-methyl-4H-benzo[f][1,2,4]triazolo[4,3-a][1,4]diazepine-5(6H)-carboxylate]	–	< 100 nM	+++	+++	> 20 ×10⁻⁶ cm/s	> 1000 nM	> 20 ×10⁻⁶ cm/s	+++
Fc1cnc(N2CC3(CC(c4nnc5n4-c4ccc(Cl)cc4CN(C4CC4)C5)C3)C2)nc1 [compound 224]	> 20 ×10⁻⁶ cm/s	< 100 nM	–	–	–	–	–	–
CC(=O)N1Cc2cc(Cl)ccc2-n2c(nnc2C2CC3(C2)CN(c2cnccn2)C3)C1 [compound 93]	–	< 100 nM	+	+	< 7 ×10⁻⁶ cm/s	> 1000 nM	< 7 ×10⁻⁶ cm/s	+
Cc1nc(N2CC3(CC(c4nnc5n4-c4ccc(Cl)cc4CN(C4CC4)C5)C3)C2)ncc1F [compound 220]	> 20 ×10⁻⁶ cm/s	< 100 nM	–	–	–	–	–	–
Fc1ccc(N2CC3(CC(c4nnc5n4-c4ccc(Cl)cc4CN(CC(F)(F)F)C5)C3)C2)nc1 [compound 259, 8-chloro-1-(2-(5-fluoropyridin-2-yl)-2-azaspiro[3.3]heptan-6-yl)-5-(2,2,2-trifluoroethyl)-5,6-dihydro-4H-benzo[f][1,2,4]triazolo[4,3-a][1,4]diazepine]	> 20 ×10⁻⁶ cm/s	< 100 nM	–	–	–	–	–	–
Cc1cccc(N2CC3(CC(c4nnc5n4-c4ccc(Cl)cc4CN(C4CC4)C5)C3)C2)n1 [compound 218]	> 20 ×10⁻⁶ cm/s	< 100 nM	–	–	–	–	–	–
Clc1ccc2c(c1)CN(C1CC1)Cc1nnc(C3CC4(C3)CN(c3ncccn3)C4)n1-2 [compound 225]	> 20 ×10⁻⁶ cm/s	< 100 nM	–	–	–	–	–	–
CCC(=O)N1Cc2cc(Cl)ccc2-n2c(nnc2C2CC3(C2)CN(c2cccc(C#N)n2)C3)C1 [compound 125]	–	< 100 nM	+	+	< 7 ×10⁻⁶ cm/s	> 1000 nM	> 20 ×10⁻⁶ cm/s	+++
CC(=O)N1Cc2cc(Cl)ccc2-n2c(nnc2C2CC3(C2)CN(c2ccccn2)C3)C1 [compound 73]	–	< 100 nM	+	+	< 7 ×10⁻⁶ cm/s	> 1000 nM	10 to 20 ×10⁻⁶ cm/s	+
COC(=O)N1Cc2cc(Cl)ccc2-n2c(nnc2C2CC3(C2)CN(c2ncc(F)cn2)C3)C1 [compound 92]	–	< 100 nM	+	+	7 to 10 ×10⁻⁶ cm/s	> 1000 nM	> 20 ×10⁻⁶ cm/s	+++
O=C(C1CC1)N1Cc2cc(Cl)ccc2-n2c(nnc2C2CC3(C2)CN(c2ccc(F)cn2)C3)C1 [compound 74]	–	< 100 nM	+	+	< 7 ×10⁻⁶ cm/s	> 1000 nM	> 20 ×10⁻⁶ cm/s	+++
O=C(C1CCC1)N1Cc2cc(Cl)ccc2-n2c(nnc2C2CC3(C2)CN(c2ccc(F)cn2)C3)C1 [compound 114]	–	< 100 nM	+	+	< 7 ×10⁻⁶ cm/s	> 1000 nM	< 7 ×10⁻⁶ cm/s	+
O=C(C(F)F)N1Cc2cc(Cl)ccc2-n2c(nnc2C2CC3(C2)CN(c2ccc(F)cn2)C3)C1 [compound 116]	–	< 100 nM	+	+	< 7 ×10⁻⁶ cm/s	> 1000 nM	> 20 ×10⁻⁶ cm/s	++++
CCC(=O)N1Cc2cc(Cl)ccc2-n2c(nnc2C2CC3(C2)CN(c2ncccn2)C3)C1 [compound 107, 1-(8-chloro-1-(2-(pyrimidin-2-yl)-2-azaspiro[3.3]heptan-6-yl)-4H-benzo[f][1,2,4]triazolo[4,3-a][1,4]diazepin-5(6H)-yl)propan-1-one]	–	< 100 nM	+	+	< 7 ×10⁻⁶ cm/s	> 1000 nM	10 to 20 ×10⁻⁶ cm/s	+
CCC(=O)N1Cc2cc(Cl)ccc2-n2c(nnc2C2CC3(C2)CN(c2cccc(F)n2)C3)C1 [compound 113]	–	< 100 nM	+	+	< 7 ×10⁻⁶ cm/s	> 1000 nM	> 20 ×10⁻⁶ cm/s	+++
CC(C)OC(=O)N1Cc2cc(Cl)ccc2-n2c(nnc2C2CC3(C2)CN(C(=O)C2(F)CC2)C3)C1 [compound 147]	–	< 100 nM	+	+	< 7 ×10⁻⁶ cm/s	–	< 7 ×10⁻⁶ cm/s	+
O=C(N1Cc2cc(Cl)ccc2-n2c(nnc2C2CC3(C2)CN(c2ccc(F)cn2)C3)C1)C1(F)CC1 [compound 156]	–	< 100 nM	++	+	10 to 20 ×10⁻⁶ cm/s	> 1000 nM	> 20 ×10⁻⁶ cm/s	+++
O=C(C1CC1)N1Cc2cc(Cl)ccc2-n2c(nnc2C2CC3(C2)CN(c2ccccn2)C3)C1 [compound 65]	–	< 100 nM	+	+	< 7 ×10⁻⁶ cm/s	> 1000 nM	> 20 ×10⁻⁶ cm/s	++++
CC1c2nnc(C3CC4(C3)CN(c3ncc(F)cn3)C4)n2-c2ccc(Cl)cc2CN1C(=O)OC1CC1 (stereo not shown) [compound 192]	–	< 100 nM	+++	+++	> 20 ×10⁻⁶ cm/s	–	> 20 ×10⁻⁶ cm/s	+++
O=C(C1CC1)N1CC2(CC(c3nnc4n3-c3ccc(Cl)cc3CN(C3CC3)C4)C2)C1 [compound 226, (6-(8-chloro-5-cyclopropyl-5,6-dihydro-4H-benzo[1,2,4]triazolo[4,3-a][1,4]diazepin-1-yl)-2-azaspiro[3.3]heptan-2-yl)(cyclopropyl)methanone]	< 7 ×10⁻⁶ cm/s	–	–	–	–	–	–	–
CC(=O)N1Cc2cc(Cl)ccc2-n2c(nnc2C2CC3(C2)CN(c2cccc(C#N)n2)C3)C1 [compound 94]	–	< 100 nM	+	+	< 7 ×10⁻⁶ cm/s	> 1000 nM	10 to 20 ×10⁻⁶ cm/s	+
CCC(=O)N1Cc2cc(Cl)ccc2-n2c(nnc2C2CC3(C2)CN(C(=O)C2CC2)C3)C1 [compound 16]	–	< 100 nM	++	+	< 7 ×10⁻⁶ cm/s	> 1000 nM	< 7 ×10⁻⁶ cm/s	+
